TGI data for three compounds are collected here from PubChem BioAssay (NCI).

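Where inhibition never reached the appropriate level, the endpoint shown equals the highest concentration tested. Otherwise, values were interpolated linearly from a five-concentration, 48-hour dose response in 96-well plates. TGI is the concentration that stops growth completely.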

Holding throughout (experiment): inhibition of tumour cell growth, NCI panel, 48 h
For experiment [1], the system named is HCT-15 colon.
Experiment [2] relates to CAKI-1 renal.
In experiment [3] the test system is A549 NSCLC.
Experiment [4] concerns NCI-H460 lung.
Experiment [5] concerns 786-0 renal.
In experiment [6] the test system is NCI-H522 lung.
For experiment [7], the system named is HL-60(TB) leukemia.
In experiment [8] the test system is OVCAR-5 ovarian.
Experiment [9] concerns SK-MEL-5 melanoma.
Experiment [10] deals with HCC-2998 colon.
Experiment [11] has as its system SK-OV-3 ovarian.

For the compound `CCCCCCCCCCCCCCC[C@@H](O)C[N+](C)(C)CCO`, the TGI in experiment [1] was determined as 14 µM; in [2] it was 4.1 µM; in experiment [3] it was 29.1 µM; in experiment [4] it was 5.01 µM; in experiment [5] it was 3.07 µM; in experiment [6], 4.35 µM. Further, the TGI in experiment [7] was 0.36 µM; in [8] it was 11.4 µM; in experiment [9] it was 7.07 µM; in experiment [10] it was 4.81 µM; in [11], 36 µM.

For the compound `COC(=O)CCSC1=CC(=O)c2nc3ccccc3c3ccnc1c23`, the TGI in experiment [1] is 27.9 µM; in experiment [2], 42.5 µM; in experiment [3] it was > 100 µM; in experiment [4] it was 41.3 µM; in [5] it was 40.2 µM; in [6], 3.74 µM. In addition, the TGI was > 24 µM in [7]; > 71.4 µM in experiment [8]; > 53.5 µM in [9]; 27.6 µM in experiment [10]; > 100 µM in [11].

Turning to `Nc1nc(Sc2ccc([N+](=O)[O-])cn2)c2[nH]cnc2n1`, the TGI in experiment [1] was > 73.3 µM; in experiment [2], 71.7 µM; in [3], 62.1 µM; in experiment [4], > 64.9 µM; in [5], > 52.8 µM; in experiment [6], 40.2 µM. Further, the TGI in [7] was > 59.4 µM; in experiment [8] it was > 100 µM; in experiment [9] it was 31.2 µM; in experiment [10] it was 96.8 µM; in experiment [11] it was > 51.1 µM.
